Data published in patent US20120053122A1, “METHOD FOR THE PROPHYLAXIS OR TREATMENT OF FLUSHING” (priority 2009, published 2012).
Like-named read-outs stand apart in the source and are kept apart here. Square brackets hold non-standard residues; d marks the D form. Peptide text beside a SMILES is read from it. dPhe(4-Cl) = N[C@H](Cc1ccc(Cl)cc1)C(=O)O; d2Nal = N[C@H](Cc1ccc2ccccc2c1)C(=O)O; dCit = NC(=O)NCCC[C@@H](N)C(=O)O; d3Pal = N[C@H](Cc1cccnc1)C(=O)O

What was measured:
PMP flushing [1] = conditions: in vivo; cited from earlier work
breast cancer = breast cancer survivors; cited from earlier work
PMP flushing [2] = assay: Short-term in-hospital response: flush diary (frequency, duration, severity, sweating); type: in vivo, women
Description: (§1) Three women who were referred for treatment of severe PMP flushing were included in the pilot study, after signing an informed consent. All three had frequent and severe flushing, during daytime as well as during the night. Sleep was often disturbed by flushes and sweat attacks, often forcing a change of clothes and/or bed linen. Physical examination in these patients was unremarkable and other causes of flushing were excluded. Thyroid function was normal, 24 hour urinary hydroxy-indol-acetic acid and catecholamines were within the reference range, serum tryptase was normal, and none used any medication known to induce flushing.
(§2) To avoid intermittent and variable interference of external factors as much as possible, and to guarantee a constant ambient temperature all subjects were hospitalized for further study. They remained ambulatory during that period. They were instructed to record the following flush characteristics in a diary: time of onset, duration in minutes, flush severity on a scale of 0-10, and the degree of associated sweat attacks: 0=no sweating; 1=mild sweating, i.e. only moist skin, no visible sweat drops; 2=moderate sweating, i.e. visible sweat drops; 3=severe sweating, i.e. totally wet, change of clothes necessary. Blood samples for measurement of serum LH, FSH, estradiol, SHBG and albumin were taken each day at 08.00 h and 20.00 h.

[3] = test system: serum LH, FSH, estradiol, SHBG and albumin; assay: Short-term in-hospital response: serum LH, FSH, estradiol, SHBG and albumin; type: in vivo, women
From the text: as §2, with “h. LH, FSH and estradiol were measured by electrochemiluminescene immunoassays (Roche Diagnostics, Mannheim, Germany). Normal ranges in PMP women: LH>10 U/L, FSH>30 U/L, estradiol<100 nmol/L. SHBG was measured by chemilumiescent enzyme immunoassay (DPC, Los Angeles, Calif., USA, normal range in PMP women: 18-144 nmol/L)).” for “h.”

PMP flushing [4] = assay: Long-term treatment, outpatient setting: flush recording; type: in vivo, women
From the text: To avoid intermittent and variable interference of external factors as much as possible, and to guarantee a constant ambient temperature all subjects were hospitalized for further study. They remained ambulatory during that period. They were instructed to record the following flush characteristics in a diary: time of onset, duration in minutes, flush severity on a scale of 0-10, and the degree of associated sweat attacks: 0=no sweating; 1=mild sweating, i.e. only moist skin, no visible sweat drops; 2=moderate sweating, i.e. visible sweat drops; 3=severe sweating, i.e. totally wet, change of clothes necessary. Blood samples for measurement of serum LH, FSH, estradiol, SHBG and albumin were taken each day at 08.00 h and 20.00 h. To evaluate whether responsiveness was maintained in the long run, Cetrorelix treatment was studied for a prolonged period in an outpatient setting. Cetrorelix was started after a baseline observation period of 3-6 days. In the first two patients the starting dose was of 250 μg once a day, injected at about 8.30-9.00 h, just after the morning blood sampling. In the third patient the starting dose was 500 μg once a day. Blood was sampled only in the morning, between 8.00 en 9.00 h, every day during the first 4 days, thereafter every 3 days for a brief period, and later on once a week.

serum LH and FSH = assay: Long-term treatment, outpatient setting: serum LH and FSH; type: in vivo, women
Description: LH, FSH and estradiol were measured by electrochemiluminescene immunoassays (Roche Diagnostics, Mannheim, Germany). Normal ranges in PMP women: LH>10 U/L, FSH>30 U/L, estradiol<100 nmol/L. SHBG was measured by chemilumiescent enzyme immunoassay (DPC, Los Angeles, Calif., USA, normal range in PMP women: 18-144 nmol/L)). To evaluate whether responsiveness was maintained in the long run, Cetrorelix treatment was studied for a prolonged period in an outpatient setting. Cetrorelix was started after a baseline observation period of 3-6 days. In the first two patients the starting dose was of 250 μg once a day, injected at about 8.30-9.00 h, just after the morning blood sampling. In the third patient the starting dose was 500 μg once a day. Blood was sampled only in the morning, between 8.00 en 9.00 h, every day during the first 4 days, thereafter every 3 days for a brief period, and later on once a week.

PMP flushing [5] = test system: PMP flushing
Description: as §1

[6] = Patient 1, 250 μg once a day for five days
[7] = Patient 1, 250 μg once a day, within 24 hours
[8] = Patient 2, 250 μg once a day, 4th day of treatment
[9] = Patient 3, 250 μg once a day, after the first 5 days
[10] = Patient 3, 250 μg once a day at 08.30 h
[11] = Patient 1, discontinued after 4 months
[12] = Patient 1, outpatient, 250 μg once a day, after two weeks
[13] = Patient 1, outpatient, 250 μg once a day, if flushes occurred
[14] = Patient 2, outpatient, 250 μg once a day, over the following weeks
[15] = Patient 2, outpatient, 250 μg twice a day after the third month
[16] = Patient 2, outpatient, 250 μg twice a day, eventually
[17] = Patient 1, outpatient, 250 μg once a day
[18] = Patient 3, outpatient, 500 μg once a day at 20.00 h, first 4 weeks

## estrogen
PMP flushing [1]
  Effectiveness against PMP flushing relative to placebo treatment: four times as effective
  Reduction of PMP flush frequency: 80-90%
Breast cancer
  Increased risk of a new primary or a breast cancer recurrence: three-fold

## NCC1(CC(=O)O)CCCCC1 [gabapentin]
PMP flushing [1]
  Effectiveness against PMP flushing relative to placebo treatment: about twice as effective as placebo treatment

## COc1ccc(C(CN(C)C)C2(O)CCCCC2)cc1 (stereo not drawn) [venlafaxine]
PMP flushing [1]
  Effectiveness against PMP flushing relative to placebo treatment: about twice as effective as placebo treatment

## Fc1ccc([C@@H]2CCNC[C@H]2COc2ccc3c(c2)OCO3)cc1 [paroxetine]
PMP flushing [1]
  Effectiveness against PMP flushing relative to placebo treatment: about twice as effective as placebo treatment

## CC(=O)N[C@H](Cc1ccc2ccccc2c1)C(=O)N[C@H](Cc1ccc(Cl)cc1)C(=O)N[C@H](Cc1cccnc1)C(=O)N[C@@H](CO)C(=O)N[C@@H](Cc1ccc(O)cc1)C(=O)N[C@H](CCCNC(N)=O)C(=O)N[C@@H](CC(C)C)C(=O)N[C@@H](CCCNC(=N)N)C(=O)N1CCC[C@H]1C(=O)N[C@H](C)C(N)=O [Cetrorelix] (Ac-[d2Nal][dPhe(4-Cl)][d3Pal]SY[dCit]LRP[dA]-NH2)
PMP flushing [2]; [6]
  Daytime flush duration: did not change appreciably
  Nighttime flush duration: tended to decrease
PMP flushing [2]; Patient 1, 250 μg once a day for five days, in particular during daytime
  Flush severity: weak trend to decrease
PMP flushing [2]; [7]
  Decrease in daytime flush frequency: 60-70%
  Decrease in nighttime flushing: 60-70%
  Decrease in total flush frequency: 60-70%
PMP flushing [2]; Patient 1, short-term
  Time for flush frequency to rise again to pre-treatment levels after discontinuation: ≤ 48 h
PMP flushing [2]; Patient 2, 250 μg once a day
  Daytime flush duration: tended to decrease slightly
  Daytime flush severity: did not change significantly
  Flush sweating: did not change significantly
PMP flushing [2]; [8]
  Change in daytime flush frequency: −80%
  Daytime flush frequency: 4 flushes per day
PMP flushing [2]; Patient 2, 250 μg once a day, after the first night
  Nighttime flushing: completely disappeared
PMP flushing [2]; Patient 2, 250 μg once a day, first night of treatment
  Change in nighttime flushing: −80%
PMP flushing [2]; Patient 2, 250 μg once a day, first night of treatment, from 5
  Nighttime flushing: 1
PMP flushing [2]; Patient 2, 250 μg once a day, within one day
  Change in daytime flush frequency: −60%
PMP flushing [2]; Patient 2, 250 μg once a day, within one day, from 20
  Daytime flush frequency: 8
PMP flushing [2]; Patient 2, within the two days after discontinuation
  Flush frequency after discontinuation: did not reach pre-treatment levels
PMP flushing [2]; [9]
  Change in daytime flushes: −25%
  Change in total flushes: −25%
  Nighttime flushing: did not change significantly
PMP flushing [2]; Patient 3, 250 μg twice a day
  Nighttime flushing: started to decrease
PMP flushing [2]; Patient 3, after 250 μg once then twice a day, one day after discontinuation
  Decrease in total daily flush frequency: 80%
PMP flushing [2]; Patient 3, six days after discontinuation
  Flush frequency after discontinuation: still markedly lower than before treatment
[3]; Patient 1, 250 μg once a day
  Time at which FSH reached its nadir: 3 days
[3]; [6]
  Serum SHBG level: did not change
  Serum albumin level: did not change
  Serum estradiol level: did not change
[3]; Patient 1, 250 μg once a day, in 3 days, from about 90
  Serum FSH: ~60 U/L
[3]; Patient 1, 250 μg once a day, within 12 hours, from about 22
  Serum LH level: ~10 U/L
[3]; Patient 1, short-term
  Time for serum FSH to rise again to pre-treatment levels after discontinuation: ≤ 48 h
  Time for serum LH to rise again to pre-treatment levels after discontinuation: ≤ 48 h
[3]; Patient 2, 250 μg once a day
  Serum FSH level change: gradual decrease
  Time at which FSH reached its nadir: 5 days
[3]; Patient 2, 250 μg once a day, within 12 hours
  Serum LH change: abrupt decrease
[3]; Patient 2, short-term
  Time for LH to return to pre-treatment levels after discontinuation: ≤ 48 h
[3]; Patient 2, short-term, compared with LH
  FSH after discontinuation: rose somewhat more slowly
[3]; [10]
  FSH change: more gradually
  LH change: decreased abruptly
[3]; Patient 3, short-term
  FSH after discontinuation of treatment: rose rapidly
  LH after discontinuation of treatment: rose rapidly
PMP flushing [4]; [11]
  Time after discontinuation at which flush frequency started to rise: 6 weeks
PMP flushing [4]; [12]
  Daytime flush frequency: close to zero
  Nighttime flush frequency: close to zero
PMP flushing [4]; Patient 1, outpatient, 250 μg once a day, from about 8, day as well as night
  Flush severity (scale of 0-10): ~4
PMP flushing [4]; [13]
  Degree of perspiration: unchanged
  Flush duration: unchanged
PMP flushing [4]; [14]
  Daytime flush duration: gradually decreased
  Daytime flush perspiration: gradually decreased
  Daytime flush severity: gradually decreased
PMP flushing [4]; Patient 2, outpatient, 250 μg once a day, up to third month
  Daytime flushing, level at which it levelled off: 10 flushes/day
PMP flushing [4]; Patient 2, outpatient, 250 μg once a day, within the first week, from about 18
  Daytime flush frequency: ~8 flushes/day
PMP flushing [4]; Patient 2, outpatient, 250 μg once a day, within two days
  Nighttime flushing: disappeared completely
PMP flushing [4]; [15]
  Flushing: further decreased
PMP flushing [4]; [16]
  Total daily flushing: 6 flushes/day
  Total decrease in total daily flushing: about 75%
PMP flushing [4]; Patient 3, outpatient, 500 μg once a day, P<0.007
  Decline of flush frequency: 79.3%
PMP flushing [4]; Patient 3, outpatient, 500 μg once a day, from 9.67±1.12, P<0.007
  Flush frequency (mean±standard error of the mean): 2.00±0.44
Serum LH and FSH; [11]
  Time for FSH levels to rise to pretreatment levels after discontinuation: ≤ 3 days
  Time for LH levels to rise to pretreatment levels after discontinuation: ≤ 3 days
Serum LH and FSH; [17]
  Serum FSH: decreased to levels similar to those observed during the in-hospital setting
  Serum LH: decreased to levels similar to those observed during the in-hospital setting
Serum LH and FSH; Patient 2, outpatient, 250 μg once a day, stabilized level
  FSH: around 15 U/L
Serum LH and FSH; Patient 2, outpatient, 250 μg once a day, within a week
  Serum LH: decreased to premenopausal levels
Serum LH and FSH; [15]
  Serum FSH level: further decreased
  Serum LH level: further decreased
Serum LH and FSH; [18]
  Serum FSH nadir: 25 U/L
  Serum LH nadir: 8 U/L

## Clc1cccc(Cl)c1N=C1NCCN1 [Clonidine]
PMP flushing [5]; Patient 1, up to 75 μg twice a day
  Effect on flushing: no beneficial effect
PMP flushing [5]; Patient 2, 50 μg twice a day
  Effect on flushing: no beneficial effect
PMP flushing [5]; Patient 3, 75 μg twice a day
  Effect on flushing: no effect whatsoever
PMP flushing [5]; all three patients, previous use
  Benefit on flushing: without experiencing a significant benefit
